Assay results: article PMC7462985, “Inhibitors of BRAF dimers using an allosteric site” (Nature Communications, 2020)

Tests used:
BRAF^WT = biological target: T1, BRAF^WT (Homo sapiens, UniProt P15056); assay: SelectScreen Z'-LYTE kinase activity assay; type: biochemical; conditions: 100 μM ATP
T1 construct: purchased Invitrogen (SelectScreen service)
Description: (§1) BRAF kinase assays were performed using the Z’-LYTE™ enzymatic assay (Invitrogen, USA). […] Titrations were performed using a 1:3 dilution. Assays were performed using SelectScreen (Invitrogen).

[1] = biological target: BRAF^V600E monomers in A375 cells (Homo sapiens, UniProt P15056, V600E); assay: Cellular Thermal Shift Assay (CETSA); type: cell-based; conditions: 20 μΜ compound, versus DMSO
Description: The samples were incubated for 1 h at room temperature, rotating. After compound incubation, samples (50 μL each) were transferred in PCR tubes and incubated for 3 min in a temperature gradient produced with a C1000 thermal cycler (Bio-Rad). Cells were immediately lysed by repeating freeze-thaw cycles (3× times) in liquid nitrogen. […] Equal volumes of supernatants were run on 15-well 4–12% NuPAGE SDS-PAGE gels (Invitrogen), and analyzed by western blot. GAPDH, which is temperature insensitive under these conditions, served as loading control. Results were quantitated by densitometric analysis as described above.

[2] = biological target: T2, ABL1(E255K)-phosphorylated (Homo sapiens, UniProt P00519, E255K); assay: KINOMEscan scanEDGE binding; conditions: KinomeEDGE scan, compound at 1 μΜ
T2 construct: purchased Eurofins/DiscoverX KINOMEscan (scanEDGE panel)

ABL1-nonphosphorylated = biological target: T3, ABL1-nonphosphorylated (Homo sapiens, UniProt P00519); assay: KINOMEscan scanEDGE binding; conditions: KinomeEDGE scan, compound at 1 μΜ
T3 construct: purchased Eurofins/DiscoverX KINOMEscan (scanEDGE panel)

ABL1-phosphorylated = biological target: T4, ABL1-phosphorylated (Homo sapiens, UniProt P00519); assay: KINOMEscan scanEDGE binding; conditions: KinomeEDGE scan, compound at 1 μΜ
T4 construct: purchased Eurofins/DiscoverX KINOMEscan (scanEDGE panel)

FGFR1 = FGFR1 (Homo sapiens, UniProt P11362); assay: SelectScreen kinase activity assay; type: biochemical; parameters: purchased Invitrogen (SelectScreen service)
Description: as §1

[3] = system: melanoma cells dependent on BRAF^V600E, p61BRAF^V600E, and RAS^MUT/BRAF^WT; assay: 3D culture colony formation; type: cell-based; conditions: 0.1-10 μM, 5th day of culture, compared to Vemurafenib
Description: 3D laminin-rich extracellular matrix cultures were prepared by trypsinization of melanoma cells from tissue culture plastic, seeding of single cells on top of a thin layer of Growth Factor-Reduced Matrigel (BD Biosciences, Franklin Lakes, NJ), and the addition of a medium containing 5% Matrigel. The cells were seeded at the density of 40,000 cells per cm^2. All 3D cell cultures were performed in DMEM supplemented with 5 μg/mL bovine insulin with Zinc (Gibco), 15 μg/mL bovine pituitary extract (Gibco), 0.5 ng/mL epidermal growth factor (Sigma-Aldrich, St. Louis, MO) and 2% fetal bovine serum. 3D cultures were maintained with media and/or drug-treatment changes every second day, and photographs were taken at the end of the 5th day. The size of single cell colonies was estimated with ImageJ (Version 1.51).

EGFR = biological target: T5, EGFR (Homo sapiens, UniProt P00533); assay: KINOMEscan scanEDGE binding; conditions: KinomeEDGE scan, compound at 1 μΜ
T5 construct: purchased Eurofins/DiscoverX KINOMEscan (scanEDGE panel)

EPHA2 = biological target: T6, EPHA2 (Homo sapiens, UniProt P29317); assay: KINOMEscan scanEDGE binding; conditions: KinomeEDGE scan, compound at 1 μΜ
T6 construct: purchased Eurofins/DiscoverX KINOMEscan (scanEDGE panel)

ERBB4 = biological target: T7, ERBB4 (Homo sapiens, UniProt Q15303); assay: KINOMEscan scanEDGE binding; conditions: KinomeEDGE scan, compound at 1 μΜ
T7 construct: purchased Eurofins/DiscoverX KINOMEscan (scanEDGE panel)

PKAC-alpha = biological target: T8, PKAC-alpha (Homo sapiens, UniProt P17612); assay: KINOMEscan scanEDGE binding; conditions: KinomeEDGE scan, compound at 1 μΜ
T8 construct: purchased Eurofins/DiscoverX KINOMEscan (scanEDGE panel)

[4] = biological target: T9, TYK2(JH1domain-catalytic) (Homo sapiens, UniProt P29597); assay: KINOMEscan scanEDGE binding; conditions: KinomeEDGE scan, compound at 1 μΜ
T9 construct: TYK2(JH1domain-catalytic); purchased Eurofins/DiscoverX KINOMEscan (scanEDGE panel)

BRAF^V600E = BRAF^V600E (Homo sapiens, UniProt P15056, V600E); assay: BRAF kinase activity assay (western blot); type: biochemical; parameters: purchased Invitrogen (SelectScreen service)
Chain of BRAF^V600E (P15056 whole entry V600E): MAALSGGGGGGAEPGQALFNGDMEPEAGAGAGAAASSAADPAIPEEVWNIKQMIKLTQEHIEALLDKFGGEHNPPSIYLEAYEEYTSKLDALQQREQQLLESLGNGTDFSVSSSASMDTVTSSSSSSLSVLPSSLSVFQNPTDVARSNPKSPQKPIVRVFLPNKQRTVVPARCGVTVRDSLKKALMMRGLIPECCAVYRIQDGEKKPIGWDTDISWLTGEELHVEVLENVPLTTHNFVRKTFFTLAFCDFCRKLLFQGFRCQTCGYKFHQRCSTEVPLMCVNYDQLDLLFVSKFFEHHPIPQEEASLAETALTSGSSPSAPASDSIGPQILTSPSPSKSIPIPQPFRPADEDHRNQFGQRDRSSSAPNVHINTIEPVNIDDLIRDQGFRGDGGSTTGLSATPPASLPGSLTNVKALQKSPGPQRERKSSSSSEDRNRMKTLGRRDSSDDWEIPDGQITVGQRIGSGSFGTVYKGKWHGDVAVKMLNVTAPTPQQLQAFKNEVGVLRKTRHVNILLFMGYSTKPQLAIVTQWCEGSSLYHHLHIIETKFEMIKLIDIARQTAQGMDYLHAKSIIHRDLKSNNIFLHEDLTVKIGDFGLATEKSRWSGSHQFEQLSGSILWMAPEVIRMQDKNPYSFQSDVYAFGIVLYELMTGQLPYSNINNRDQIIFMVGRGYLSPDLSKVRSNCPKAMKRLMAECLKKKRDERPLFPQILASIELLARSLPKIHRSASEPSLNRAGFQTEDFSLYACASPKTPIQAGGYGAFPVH
Description: Kinase activity assays were performed using BRAF Kinase Assay Kit (#17-359), CRAF Kinase Assay Kit (#17-360) and MAP Kinase/Erk Assay Kit (#17-191), following protocols by the provider (Millipore) with some modifications. In brief, BRAF and CRAF, and MEK1 recombinant proteins were incubated for 15 min with inhibitors, then corresponding substrates were added and incubated for 30 min at 30 °C and assayed via western blot.

Chain of FGFR1 (P11362 22-822): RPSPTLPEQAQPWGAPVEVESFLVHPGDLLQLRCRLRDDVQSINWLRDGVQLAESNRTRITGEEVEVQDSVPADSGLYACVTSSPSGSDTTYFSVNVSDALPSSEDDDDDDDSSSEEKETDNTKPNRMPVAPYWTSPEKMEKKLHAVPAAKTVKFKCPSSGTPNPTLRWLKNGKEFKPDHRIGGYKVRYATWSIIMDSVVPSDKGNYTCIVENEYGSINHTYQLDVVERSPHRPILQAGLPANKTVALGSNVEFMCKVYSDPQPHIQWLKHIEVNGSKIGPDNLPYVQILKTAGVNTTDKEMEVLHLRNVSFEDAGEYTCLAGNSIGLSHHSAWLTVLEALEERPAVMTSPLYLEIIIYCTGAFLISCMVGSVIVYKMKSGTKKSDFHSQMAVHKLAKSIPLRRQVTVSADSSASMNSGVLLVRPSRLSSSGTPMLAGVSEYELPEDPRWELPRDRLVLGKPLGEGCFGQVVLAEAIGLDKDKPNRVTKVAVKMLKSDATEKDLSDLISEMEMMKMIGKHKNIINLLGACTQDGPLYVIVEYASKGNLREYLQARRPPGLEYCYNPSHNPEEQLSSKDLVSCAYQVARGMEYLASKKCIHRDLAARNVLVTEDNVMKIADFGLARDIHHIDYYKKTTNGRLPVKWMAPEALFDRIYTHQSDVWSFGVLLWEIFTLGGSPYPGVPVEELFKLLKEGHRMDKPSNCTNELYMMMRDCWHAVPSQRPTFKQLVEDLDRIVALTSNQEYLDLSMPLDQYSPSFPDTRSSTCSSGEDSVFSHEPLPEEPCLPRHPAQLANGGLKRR
Chain of BRAF^V600E monomers in A375 cells (P15056 whole entry V600E): as the sequence (P15056 whole entry V600E) above
T1 sequence (P15056 whole entry): as the sequence (P15056 whole entry V600E) above, with E600V counted along it
T7 sequence (Q15303 26-1308): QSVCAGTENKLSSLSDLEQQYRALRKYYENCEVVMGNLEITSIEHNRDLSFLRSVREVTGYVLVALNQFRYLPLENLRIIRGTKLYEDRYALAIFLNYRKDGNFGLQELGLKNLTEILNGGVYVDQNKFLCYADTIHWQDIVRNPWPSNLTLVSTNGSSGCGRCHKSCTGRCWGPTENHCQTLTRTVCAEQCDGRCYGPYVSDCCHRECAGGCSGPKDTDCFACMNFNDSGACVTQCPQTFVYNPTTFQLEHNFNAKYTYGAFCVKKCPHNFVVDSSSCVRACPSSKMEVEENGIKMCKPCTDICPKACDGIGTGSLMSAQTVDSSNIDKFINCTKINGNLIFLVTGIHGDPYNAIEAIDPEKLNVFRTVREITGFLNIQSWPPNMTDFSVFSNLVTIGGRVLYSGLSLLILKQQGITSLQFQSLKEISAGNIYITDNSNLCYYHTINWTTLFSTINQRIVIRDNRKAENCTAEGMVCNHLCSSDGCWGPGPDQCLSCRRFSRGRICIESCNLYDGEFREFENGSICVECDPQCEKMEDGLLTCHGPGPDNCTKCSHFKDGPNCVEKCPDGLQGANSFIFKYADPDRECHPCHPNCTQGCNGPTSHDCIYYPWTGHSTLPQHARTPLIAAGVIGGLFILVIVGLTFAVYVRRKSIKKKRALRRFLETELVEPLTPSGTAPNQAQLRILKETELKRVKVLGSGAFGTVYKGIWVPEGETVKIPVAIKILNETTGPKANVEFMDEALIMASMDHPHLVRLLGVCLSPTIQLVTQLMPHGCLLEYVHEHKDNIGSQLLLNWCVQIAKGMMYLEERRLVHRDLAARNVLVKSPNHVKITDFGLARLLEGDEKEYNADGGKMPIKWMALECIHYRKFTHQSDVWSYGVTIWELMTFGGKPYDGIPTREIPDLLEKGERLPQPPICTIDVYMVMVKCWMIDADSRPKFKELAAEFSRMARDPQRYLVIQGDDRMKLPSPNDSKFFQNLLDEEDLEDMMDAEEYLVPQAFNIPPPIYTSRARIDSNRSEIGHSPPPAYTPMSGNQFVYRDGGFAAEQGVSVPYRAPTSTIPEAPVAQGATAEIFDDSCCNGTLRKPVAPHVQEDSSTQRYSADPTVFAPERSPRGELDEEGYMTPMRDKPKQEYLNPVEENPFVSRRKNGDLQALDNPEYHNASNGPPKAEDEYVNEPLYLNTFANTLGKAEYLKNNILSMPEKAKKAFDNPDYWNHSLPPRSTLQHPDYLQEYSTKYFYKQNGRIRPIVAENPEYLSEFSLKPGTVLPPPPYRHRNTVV
T3 sequence (P00519 whole entry): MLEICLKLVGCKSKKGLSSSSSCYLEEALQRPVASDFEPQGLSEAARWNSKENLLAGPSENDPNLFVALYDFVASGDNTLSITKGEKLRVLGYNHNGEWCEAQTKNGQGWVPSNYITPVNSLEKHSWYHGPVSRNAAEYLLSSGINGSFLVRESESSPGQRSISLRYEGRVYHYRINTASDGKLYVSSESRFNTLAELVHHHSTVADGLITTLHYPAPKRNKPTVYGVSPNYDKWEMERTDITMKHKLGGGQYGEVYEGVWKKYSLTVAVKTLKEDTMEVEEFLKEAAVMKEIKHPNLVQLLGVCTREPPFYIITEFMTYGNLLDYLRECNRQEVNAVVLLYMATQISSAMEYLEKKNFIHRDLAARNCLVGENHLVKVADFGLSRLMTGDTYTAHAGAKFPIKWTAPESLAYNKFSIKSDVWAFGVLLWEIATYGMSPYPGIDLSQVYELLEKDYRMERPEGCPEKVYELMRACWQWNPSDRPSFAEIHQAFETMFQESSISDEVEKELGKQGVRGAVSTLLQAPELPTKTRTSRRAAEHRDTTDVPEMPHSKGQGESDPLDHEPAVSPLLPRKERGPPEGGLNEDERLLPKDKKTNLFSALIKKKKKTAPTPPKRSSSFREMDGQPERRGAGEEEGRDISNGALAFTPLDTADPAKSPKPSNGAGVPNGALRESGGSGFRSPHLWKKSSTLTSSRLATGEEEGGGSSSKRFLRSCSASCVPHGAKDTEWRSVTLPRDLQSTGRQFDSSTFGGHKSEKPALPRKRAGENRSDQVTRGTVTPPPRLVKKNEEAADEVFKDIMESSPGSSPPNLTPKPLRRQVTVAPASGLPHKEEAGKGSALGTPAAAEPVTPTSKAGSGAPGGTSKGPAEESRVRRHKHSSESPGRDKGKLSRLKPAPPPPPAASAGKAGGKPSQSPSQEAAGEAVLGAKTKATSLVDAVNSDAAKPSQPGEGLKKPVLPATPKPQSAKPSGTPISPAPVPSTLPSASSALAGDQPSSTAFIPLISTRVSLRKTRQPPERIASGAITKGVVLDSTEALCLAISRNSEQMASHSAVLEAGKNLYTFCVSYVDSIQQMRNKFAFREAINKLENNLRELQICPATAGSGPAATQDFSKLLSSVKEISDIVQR
T4 sequence (P00519 whole entry): as above
T9 sequence (P29597 889-1187 limits assumed): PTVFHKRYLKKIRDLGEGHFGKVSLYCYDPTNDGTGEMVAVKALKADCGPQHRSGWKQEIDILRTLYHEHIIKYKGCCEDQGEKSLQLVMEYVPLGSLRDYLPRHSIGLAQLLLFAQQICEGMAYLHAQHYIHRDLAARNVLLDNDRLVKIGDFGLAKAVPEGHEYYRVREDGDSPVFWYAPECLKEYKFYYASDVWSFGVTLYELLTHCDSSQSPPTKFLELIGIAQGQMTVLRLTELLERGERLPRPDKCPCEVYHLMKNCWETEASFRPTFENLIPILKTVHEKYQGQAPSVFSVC
T2 sequence (P00519 whole entry E255K): as the sequence (P00519 whole entry) above, with E255K counted along it

IC50 (BRAF^WT) | ΔTm (CETSA) [1] | % Ctrl ABL1(E255K)-phosphorylated [2] | % Ctrl ABL1-nonphosphorylated (ABL1-nonphosphorylated) | % Ctrl ABL1-phosphorylated (ABL1-phosphorylated) | IC50 (FGFR1; 100 μM ATP) | reduction of inhibitory activity on FGFR compared to Ponatinib (FGFR1; PHI1 versus Ponatinib) | SMILES | inhibition of colony formation in 3D culture (in words) [3] | % Ctrl EGFR (EGFR) | % Ctrl EPHA2 (EPHA2) | % Ctrl ERBB4 (ERBB4) | % Ctrl PKAC-alpha (PKAC-alpha) | % Ctrl TYK2(JH1domain-catalytic) [4] | inhibition of MEK phosphorylation by BRAF^V600E (in words) (BRAF^V600E)
0.323 ± 0.035 µM | +3.4 °C | 0.25 % Ctrl | 0 % Ctrl | 0.1 % Ctrl | 0.624 ± 0.025 µM | 43 fold | Cc1ccc(C(=O)Nc2ccc(CNCCN3CCOCC3)c(C(F)(F)F)c2)cc1C#Cc1cnc2cccnn12 [PHI1] |  |  |  |  |  |  | 
 |  |  |  |  |  |  | Cc1ccc(C(=O)Nc2ccc(CN3CCN(C)CC3)c(C(F)(F)F)c2)cc1C#Cc1cnc2cccnn12 [Ponatinib, 3-[2-(imidazo[1,2-b]pyridazin-3-yl)ethynyl]-4-methyl-N-{4-[(4-methylpiperazin-1-yl)methyl]-3-(trifluoromethyl)phenyl}benzamide] | increased efficacy to inhibit colony formation as compared to Vemurafenib | 15 % Ctrl | 0 % Ctrl | 27 % Ctrl | 8.1 % Ctrl | 8.6 % Ctrl | potent inhibitor
